Source: patent publication EP0176049A2, “Aminoalkylnaphtalene derivatives having pharmacological activities” (priority 1984, dated 1986)

Legend:
[1] = tested on: mouse; test: hot plate test (analgesic activity); type: in vivo
[2] = tested on: rat; test: paw oedema by carrageenin according to Randall-Selitto (antiinflammatory activity); type: in vivo; settings: ip
[3] = acute toxicity in the mouse; type: in vivo; settings: in vivo, ip, i.p. administration
[4] = biological target: enzymes responsible for the enkephalins hydrolysis; test: inhibition of the enzymes responsible for the enkephalins hydrolysis; type: biochemical
[5] = tested on: mouse; test: acute toxicity in the mouse; type: in vivo; settings: i.p. administration

What does the source list for `CCC(O)(c1ccc2cc(O)ccc2c1)C(C)CN(C)C` (stereo not drawn) [Example 2]?
ED50 ([1]; ip, mouse, analgesic activity): 5.6 ± 1.51 mg/kg; ED50 [2]: 1.25 mg/kg; LD50 [3]: 56.2 mg/kg

Which ED50 ([1]; Mus musculus, route and species not restated for this value) does the source give for `CCC(O)(c1ccc2cc(OC)ccc2c1)C(C)CN(C)C` (stereo not drawn) [Example 1] here?
Its ED50 is 13.5 mg/kg.

What about the “kind of activity in the hot plate test (reversibility by naloxone)” value ([1]; naloxone antagonism) of the same compound?
Its value is “partially reversible by naloxone”.

What about the IC50 [4] of the same compound?
Its IC50 is 4 mM.

What about the LD50 [3] of the same compound?
The LD50 was 65.8 mg/kg.

What does the source list for “2-(3-dimethylamino-l-t-butyl-l-hydroxypropyl)-6-methoxy- naphtalene [Example 3]”?
IC50 [4]: 5 mM; LD50 [5]: 120,96 ± 5,32. mg/kg i.p.
